Reference: patent US9464055B2, “Quinoline derivatives useful as CB-1 inverse agonists” (JANSSEN PHARMACEUTICA NV, priority 2014, dated 2016)

Key:
[1] = biological target: hCB1-CHO-K1 membranes (Homo sapiens, UniProt P21554); experiment: CB-1 membrane binding assay ([3H] CP 55,940 displacement)
[2] = biological target: T1, Human CB1R (Cannabinoid receptor 1) (Homo sapiens, UniProt P21554); experiment: CB-1 in vitro cAMP (HTRF) functional assay; assay type: cell-based; conditions: mean where tested more than once
T1 construct: host or cells: HEK-293
T1 sequence (P21554 whole entry): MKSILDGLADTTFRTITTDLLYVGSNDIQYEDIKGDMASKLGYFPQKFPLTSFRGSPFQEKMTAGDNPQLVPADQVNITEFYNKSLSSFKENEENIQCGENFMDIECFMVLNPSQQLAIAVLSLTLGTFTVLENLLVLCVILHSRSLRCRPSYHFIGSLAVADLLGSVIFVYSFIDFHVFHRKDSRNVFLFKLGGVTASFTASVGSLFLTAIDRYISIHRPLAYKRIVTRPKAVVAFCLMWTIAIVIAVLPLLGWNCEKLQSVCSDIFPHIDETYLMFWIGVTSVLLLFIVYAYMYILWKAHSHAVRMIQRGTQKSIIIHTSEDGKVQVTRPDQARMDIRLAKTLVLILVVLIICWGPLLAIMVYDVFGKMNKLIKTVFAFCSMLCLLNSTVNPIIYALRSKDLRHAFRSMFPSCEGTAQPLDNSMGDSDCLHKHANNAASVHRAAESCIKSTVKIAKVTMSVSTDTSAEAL
From the text: (§1) CB1 and CB2 receptors are Gi-coupled GPCR. Activation of CB1 and CB2 receptors results in a decrease in cAMP production. An inverse agonist of the CB1 or CB2 receptor results in the opposite effect, an increase of cAMP production. The principle of this assay is based on HTRF® technology (Homogeneous Time-Resolved Fluorescence). The method is a competitive immunoassay between native cAMP produced by cells and the cAMP labeled with the fluorophore d2. The tracer binding is quantified by a Mab anti-cAMP labeled with Eu3+ TBP-NHS Cryptate (supplied as part of the assay kit). The specific signal (i.e. energy transfer) is inversely proportional to the concentration of cAMP in the standard or sample.
(§2) Human CB1R (Cannabinoid receptor 1) was stably transfected in HEK-293 cells (DiscoveRx, cat: 93-0200C1). Human CB2R (Cannabinoid receptor 2) was stably transfected in HEK-293 cells (DiscoveRx, cat: 93-0201C1). Cell cultures were maintained in media: DMEM (Invitrogen Cat#12430-054) supplemented with 10% HI FBS (Invitrogen Cat#16140-071), 1% L-glutamine (Invitrogen Cat#25030-081), 0.2 mg/ml Hygromycin B (Invitrogen Cat#10687-010), 600 μg/mL G418 (Invitrogen Cat#10131-035), and 1× Penn/Strep (Invitrogen 15140-122). After cell expansion, aliquots were cryo-stored in media containing 5% DMSO (Pierce Cat#20684).
(§3) One day prior to experiments media was warmed to 37° C. and the cryo-stored cells were thawed in a 37° C. water bath. The cells were then added to media (10× volume) and the mixture was centrifuged at 1000 RPM for 5 min. The supernate was removed and the cells were re-suspended in media. A sample of the cell suspension was evaluated on a Cedex XS automated cell counter (Innovatis Systems) to determine viable cells/ml. Additional media was added to the cells to achieve a final cell density of 4E5 cells/mL. The cells were then plated into 384 well PDL white solid bottom plates (Greiner, Cat#781945) at 20 μL per well using a Multidrop (Thermo Scientific). Cells were removed from Row P (location of cAMP standards). Two columns of cells were plated into a clear bottom 384 well PDL coated plate (Greiner, Cat#781944) to view confluence the day of the assay. The cell plates were lidded and stored for 15 minutes in a hood, then transferred to an incubator (37° C., 5% CO2, 95% humidity) overnight.
(§4) DMSO was added to all wells of 384 well V bottom polystyrene plate (Greiner, Cat#781280) except to columns 1 and 13, rows O and P and wells M13-M23 and N13-N23. Test compounds (60 μL, 10 mM) were added to Column 1 and 13 (A1 through N1 and A13 through L13). Test compounds were serially diluted 1/3 by transferring and mixing 20 μl sample with 40 μL DMSO.
(§5) DMSO (40 μL) was added to wells of 384 well V bottom polystyrene plate: O2 through O11, M14 through M23, N14 through N23, and O14 through O23. AM630 (also known as [6-iodo-2-methyl-1-[2-(4-morpholinyl)ethyl]-1H-indol-3-yl](4-methoxyphenyl)-methanone, Cayman Chemical, Cat#10006974) (60 μL, 10 mM) was added to O1; and 1-(2,4-dichlorophenyl)-7-[(4-fluorophenyl)methylene]-4,5,6,7-tetrahydro-N-1-piperidinyl-1H-indazole-3-carboxamide (60 μL, 10 mM) was added to N13. The control was serially diluted 1/3 by transferring and mixing 20 μl sample with 40 μL DMSO. This process resulted 11 doses per control, 10 mM to […].
(§6) Cells plated the day prior to the assay in clear bottom plates were viewed on an inverse microscope to ensure confluency in the range of 60-75%. […]

[3] = biological target: T2, Human CB2R (Cannabinoid receptor 2) (Homo sapiens, UniProt P34972); experiment: CB-2 in vitro cAMP (HTRF) functional assay; assay type: cell-based; conditions: mean where tested more than once
T2 construct: host or cells: HEK-293
T2 sequence (P34972 whole entry): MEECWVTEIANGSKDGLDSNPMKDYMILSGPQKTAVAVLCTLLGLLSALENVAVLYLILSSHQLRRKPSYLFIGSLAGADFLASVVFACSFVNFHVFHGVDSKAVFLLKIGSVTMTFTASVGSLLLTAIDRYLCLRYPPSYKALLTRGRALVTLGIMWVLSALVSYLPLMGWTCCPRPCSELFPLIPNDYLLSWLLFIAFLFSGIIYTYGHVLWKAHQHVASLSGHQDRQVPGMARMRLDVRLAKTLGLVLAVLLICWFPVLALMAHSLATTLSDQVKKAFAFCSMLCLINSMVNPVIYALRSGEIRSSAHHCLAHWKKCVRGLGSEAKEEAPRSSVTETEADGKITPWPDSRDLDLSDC
From the text: as §1, §2, §3, §4, §5, §6

[4] = biological target: T3, hCB2-HEK293 membranes (Homo sapiens, UniProt P34972); experiment: CB-2 membrane binding assay ([3H] CP 55,940 displacement); conditions: mean where tested more than once
T3 construct: expressed in transfected cells; host or cells: HEK293
T3 sequence (P34972 whole entry): as above

Sequence of hCB1-CHO-K1 membranes (P21554 whole entry): as the sequence (P21554 whole entry) above

Compound | IC50 [1] | EC50 [3] | other results
O=c1cc(CCc2cccc(Cl)c2)c2cc(C(O)(c3ccc(Cl)cc3)c3nccs3)ccc2[nH]1 (stereo not shown) [Compound 8, 4-(3-chlorophenethyl)-6-((4-chlorophenyl)(hydroxy)(thiazol-2-yl)methyl)quinolin-2(1H)-one] | > 2500 nM | – | –
O=C(O)CCN1CCC(Nc2cc(=O)[nH]c3ccc(C(c4ccc(Cl)cc4)c4ccc(Cl)cc4)cc23)CC1 [Compound 115, 3-[4-({6-[Bis(4-chlorophenyl)methyl]-2-oxo-1,2-dihydroquinolin-4-yl}amino)piperidin-1-yl]propanoic acid] | – | > 10000 nM | EC50 [2]: > 10000 nM
Cn1c(=O)cc(CCc2cccc(Cl)c2)c2cc(C(c3ccc(Cl)cc3)c3nccs3)ccc21 (stereo not shown) [Compound 9, 4-(3-chlorophenethyl)-6-((4-chlorophenyl)(thiazol-2-yl)methyl)-1-methylquinolin-2(1H)-one] | > 2500 nM | – | –
O=c1cc(Nc2ccc(C(F)(F)F)cc2)c2cc(C(c3ccc(Cl)cc3)c3ccc(Cl)cc3)cc(Br)c2[nH]1 [Compound 93] | – | > 10000 nM | EC50 [2]: 15 nM
O=c1cc(/C=C/c2cccc(F)c2)c2cc(C(c3ccc(Cl)cc3)c3ccsc3)ccc2[nH]1 (stereo not shown) [Compound 16, 6-[(4-Chlorophenyl)(thiophen-3-yl)methyl]-4-[(E)-2-(3-fluorophenyl)ethenyl]quinolin-2(1H)-one] | 22 nM | – | IC50 [4]: > 5000 nM
O=C(O)COc1cc(C(c2ccc(Cl)cc2)c2ccc(Cl)cc2)cc2c(NC3CCN(S(=O)(=O)C(F)(F)F)CC3)ccnc12 [Compound 545] | – | – | EC50 [2]: 4900 nM
O=c1cc(CCc2cccc(Cl)c2)c2cc(C(c3ccc(Cl)cc3)c3nccs3)ccc2[nH]1 (stereo not shown) [Compound 11, 4-(3-chlorophenethyl)-6-((4-chlorophenyl)(thiazol-2-yl)methyl)quinolin-2(1H)-one] | 332 nM | – | –
O=C(O)c1ccc(Nc2cc(=O)[nH]c3ccc(C(c4ccc(Cl)cc4)c4ccc(Cl)cc4)cc23)cc1 [Compound 86, 4-({6-[Bis(4-chlorophenyl)methyl]-2-oxo-1,2-dihydroquinolin-4-yl}amino)benzoic acid] | – | > 10000 nM | EC50 [2]: > 10000 nM
O=c1cc(/C=C/c2ccccc2)c2cc(C(c3ccc(Cl)cc3)c3nccs3)ccc2[nH]1 (stereo not shown) [Compound 25, (E)-6-((4-chlorophenyl)(thiazol-2-yl)methyl)-4-styrylquinolin-2(1H)-one] | 34.6 nM | – | IC50 [4]: > 5000 nM
O=C(c1ccc(Nc2cc(=O)[nH]c3ccc(C(c4ccc(Cl)cc4)c4ccc(Cl)cc4)cc23)cc1F)N1CCCC1 [Compound 138] | – | 750 nM | EC50 [2]: 227 nM
NC(=O)CCC(=O)N1CCC(Nc2cc(=O)[nH]c3ccc(C(c4ccc(Cl)cc4)c4ccc(Cl)cc4)cc23)CC1 [Compound 112, 4-[4-({6-[Bis(4-chlorophenyl)methyl]-2-oxo-1,2-dihydroquinolin-4-yl}amino)piperidin-1-yl]-4-oxobutanamide] | – | > 10000 nM | –
O=c1cc(/C=C/c2ccc(C(F)(F)F)cc2)c2cc(C(c3ccc(Cl)cc3)c3cccs3)ccc2[nH]1 (stereo not shown) [Compound 19, 6-[(4-Chlorophenyl)(thiophen-2-yl)methyl]-4-{(E)-2-[4-(trifluoromethyl)phenyl]ethenyl} quinolin-2(1H)-one] | 15.1 nM | – | IC50 [4]: > 5000 nM
COC(=O)c1ccc(Nc2cc(=O)[nH]c3ccc(C(c4ccc(Cl)cc4)c4ccc(Cl)cc4)cc23)cc1 [Compound 85, Methyl 4-({6-[bis(4-chlorophenyl)methyl]-2-oxo-1,2-dihydroquinolin-4-yl}amino)benzoate] | – | > 10000 nM | –
CC(C)(C)OC(=O)COc1ccc(Nc2cc(=O)[nH]c3ccc(C(c4ccc(Cl)cc4)c4ccc(Cl)cc4)cc23)cc1 [Compound 105, tert-butyl 2-(4-((6-(bis(4-chlorophenyl)methyl)-2-oxo-1,2-dihydroquinolin-4-yl)amino)phenoxy)acetate] | – | > 10000 nM | –
COC(=O)Cc1ccc(Nc2cc(=O)[nH]c3ccc(C(c4ccc(Cl)cc4)c4ccc(Cl)cc4)cc23)cc1 [Compound 124, Methyl [4-({6-[bis(4-chlorophenyl)methyl]-2-oxo-1,2-dihydroquinolin-4-yl}amino)phenyl]acetate] | – | > 10000 nM | –
O=c1cc(Nc2cccc(C(F)(F)F)c2)c2cc(C(c3ccc(Cl)cc3)c3ccc(Cl)cc3)ccc2[nH]1 [Compound 75, 6-[Bis(4-chlorophenyl)methyl]-4-{[3-(trifluoromethyl)phenyl]amino}quinolin-2(1H)-one] | – | > 10000 nM | –
CC(C)(C)OC(=O)/N=C(/NC(=O)OC(C)(C)C)N1CCC(Nc2cc(=O)[nH]c3ccc(C(c4ccc(Cl)cc4)c4ccc(Cl)cc4)cc23)CC1 [Compound 119, (Z)-tert-butyl ((4-((6-(bis(4-chlorophenyl)methyl)-2-oxo-1,2-dihydroquinolin-4-yl)amino)piperidin-1-yl)((tert-butoxycarbonyl)imino)methyl)carbamate] | – | > 10000 nM | –

Second part, led by results:

IC50 [1] | EC50 [3] | Compound | other results
52.1 nM | – | OC(c1ccc(Cl)cc1)(c1ccc(Cl)cc1)c1ccc2nccc(/C=C/c3ccccc3)c2c1 [Compound 501, (E)-bis(4-chlorophenyl)(4-styrylquinolin-6-yl)methanol] | –
1870 nM | – | COc1ccc(C(O)(c2ccc3nccc(/C=C/c4ccccc4)c3c2)c2nccs2)cc1 (stereo not shown) [Compound 504, (E)-(4-methoxyphenyl)(4-styrylquinolin-6-yl)(thiazol-2-yl)methanol] | –
55.1 nM | – | Clc1ccc(C(c2ccc3nccc(/C=C/c4ccccc4)c3c2)c2nccs2)cc1 (stereo not shown) [Compound 511] | IC50 [4]: > 5000 nM
97.3 nM | – | Clc1ccc(C(c2ccc3nccc(/C=C/c4ccccc4)c3c2)c2cccs2)cc1 (stereo not shown) [Compound 508, 6-[(4-Chlorophenyl)(thiophen-2-yl)methyl]-4-[(E)-2-phenylethenyl]quinoline] | –
4.4 nM | – | O=c1cc(NC2CCN(S(=O)(=O)C(F)(F)F)CC2)c2cc(C(c3ccc(Cl)cc3)c3nccs3)ccc2[nH]1 (stereo not shown) [Compound #41, 6-((4-chlorophenyl)(thiazol-2-yl)methyl)-4-((1-((trifluoromethyl)sulfonyl)piperidin-4-yl)amino)quinolin-2(1H)-one] | IC50 [4]: > 5000 nM
101 nM | – | OC(c1ccc(Cl)cc1)(c1ccc2nccc(/C=C/c3ccccc3)c2c1)c1cccs1 (stereo not shown) [Compound 506, (4-Chlorophenyl){4-[(E)-2-phenylethenyl]quinolin-6-yl}thiophen-2-ylmethanol] | –
223 nM | – | OC(c1ccc(Cl)cc1)(c1ccsc1)c1ccc2nccc(/C=C/c3ccccc3)c2c1 (stereo not shown) [Compound 507, (4-Chlorophenyl){4-[(E)-2-phenylethenyl]quinolin-6-yl}thiophen-3-ylmethanol] | –
– | 3400 nM | CCOC(=O)COc1cc(C(c2ccc(Cl)cc2)c2ccc(Cl)cc2)cc2c(NC3CCN(S(=O)(=O)C(F)(F)F)CC3)ccnc12 [Compound 544] | EC50 [2]: 126 nM
4.1 nM | – | Clc1ccc(C(c2ccc(Cl)cc2)c2ccc3nccc(/C=C/c4ccccc4)c3c2)cc1 [Compound 503, (E)-6-(bis(4-chlorophenyl)methyl)-4-styrylquinoline] | –
– | > 10000 nM | O=c1cc(NC2CCN(c3ccccc3)CC2)c2cc(C(c3ccc(Cl)cc3)c3ccc(Cl)cc3)ccc2[nH]1 [Compound #60, 6-[bis(4-chlorophenyl)methyl]-4-[(1-phenylpiperidin-4-yl)amino]quinolin-2-ol] | –
